Measured values from ChEMBL document CHEMBL1129819, “Polysubstituted 2H-pyran-2-ones: A new class of hepatoprotective agents” (1997).

Key:
Format in all cases: functional
Rattus norvegicus [1] = assay: Percent protection in alcohol-induced model using acid phosphatase(ACP) at peroral dose of 6 mg/kg for 7 days; details: route oral
Rattus norvegicus [2] = assay: Percent protection in galactosamine-induced model using acid phosphatase(ACP)when peroral administration of compound 6 mg/kg for 7 days; details: route oral
Rattus norvegicus [3] = assay: Percent protection in paracetamol-induced model using glutamate pyruvate transaminase(GPT) when peroral administration of compound 6 mg/kg for 7 days; details: route oral
Rattus norvegicus [4] = assay: Percent protection in alcohol-induced model using glutamate oxaloacetate transaminase(GOT) when peroral administration of compound 12 mg/kg for 7 days; details: route oral
Rattus norvegicus [5] = assay: Percent protection in alcohol-induced model using acid phosphatase(ACP) when peroral administration of compound 12 mg/kg for 7 days; details: route oral
Rattus norvegicus [6] = assay: Percent protection in alcohol-induced model using glutamate dehydrogenase(GIDH) when peroral administration of compound 12 mg/kg for 7 days; details: route oral
Rattus norvegicus [7] = assay: Percent protection in alcohol-induced model using glutamate oxaloacetate transaminase(GOT) when peroral administration of compound 6 mg/kg for 7 days; details: route oral
Rattus norvegicus [8] = assay: Percent protection in carbon tetrachloride-induced model using acid phosphatase(ACP) when peroral administration of compound 6 mg/kg for 7 days; details: route oral
Rattus norvegicus [9] = assay: Percent protection in paracetamol-induced model using acid phosphatase(ACP) when peroral administration of compound 6 mg/kg for 7 days; details: route oral
Rattus norvegicus [10] = assay: Percent protection in alcohol-induced model using alkaline phosphatase(ALP) when peroral administration of compound 6 mg/kg for 7 days; details: route oral
Rattus norvegicus [11] = assay: Percent protection in carbon tetrachloride-induced model using glutamate pyruvate transaminase(GPT) when peroral administration of compound 6 mg/kg for 7 days; details: route oral
Rattus norvegicus [12] = assay: Percent protection in galactosamine-induced model using alkaline phosphatase(ALP) when peroral administration of compound 6 mg/kg for 7 days; details: route oral
Rattus norvegicus [13] = assay: Percent protection in carbon tetrachloride-induced model using glutamate oxaloacetate transaminase(GOT) when peroral administration of compound 6 mg/kg for 7 days; details: route oral
Rattus norvegicus [14] = assay: Percent protection against thioacetamide-induced toxicity in rats using glutamate oxaloacetate transaminase (GOT) when peroral administration of compound 6 mg/kg for 7 days; details: route oral
Rattus norvegicus [15] = assay: Percent protection in paracetamol-induced model using glutamate dehydrogenase(GIDH) when peroral administration of compound 6 mg/kg for 7 days; details: route oral
Rattus norvegicus [16] = assay: Percent protection in alcohol-induced model using glutamate pyruvate transaminase(GPT) at peroral dose of 12 mg/kg for 7 days; details: route oral
Rattus norvegicus [17] = assay: Percent protection in galactosamine-induced model using glutamate pyruvate transaminase(GPT) when peroral administration of compound 6 mg/kg for 7 days; details: route oral
Rattus norvegicus [18] = assay: Percent protection in alcohol-induced model using glutamate dehydrogenase(GIDH) when peroral administration of compound 6 mg/kg for 7 days; details: route oral
Rattus norvegicus [19] = assay: Percent protection in paracetamol-induced model using glutamate oxaloacetate transaminase(GOT) when peroral administration of compound 6 mg/kg for 7 days; details: route oral
Rattus norvegicus [20] = assay: Percent protection in alcohol-induced model using glutamate pyruvate transaminase(GPT) when peroral administration of compound 6 mg/kg for 7 days; details: route oral
Rattus norvegicus [21] = assay: Percent protection in carbon tetrachloride-induced model using glutamate dehydrogenase(GIDH) when peroral administration of compound 6 mg/kg for 7 days; details: route oral
Rattus norvegicus [22] = assay: Percent protection in alcohol-induced model using alkaline phosphatase(ALP) when peroral administration of compound 12 mg/kg for 7 days; details: route oral
Rattus norvegicus [23] = assay: Percent protection in galactosamine-induced model using glutamate dehydrogenase(GIDH) when peroral administration of compound 6 mg/kg for 7 days; details: route oral
Rattus norvegicus [24] = assay: Percent protection in carbon tetrachloride-induced model using alkaline phosphatase(ALP) when peroral administration of compound 6 mg/kg for 7 days; details: route oral
Rattus norvegicus [25] = assay: Percent protection in paracetamol-induced model using alkaline phosphatase(ALP) at peroral dose of 6 mg/kg for 7 days; details: route oral
Rattus norvegicus [26] = assay: Percent protection against thioacetamide-induced toxicity in rats using glutamate pyruvate transaminase (GPT) when peroral administration of compound 6 mg/kg for 7 days; details: route oral
Rattus norvegicus [27] = species on record: Rattus norvegicus; assay: Percent protection against thioacetamide-induced toxicity in rats using acid phosphatase(ACP); design: concentration or dose not given beside the values
Rattus norvegicus [28] = assay: Percent protection in galactosamine-induced model using glutamate oxaloacetate transaminase(GOT) when peroral administration of compound 6 mg/kg for 7 days; details: route oral
Rattus norvegicus [29] = assay: Percent protection against thioacetamide-induced toxicity in rats using glutamate dehydrogenase (GIDH) when peroral administration of compound 6 mg/kg for 7 days; details: route oral
Rattus norvegicus [30] = assay: Percent protection against thioacetamide-induced toxicity in rats using alkaline phosphatase (ALP) when peroral administration of compound 6 mg/kg for 7 days; details: route oral

`CSc1cc(-c2ccc(Cl)cc2)oc(=O)c1C#N` gave a Protection (Rattus norvegicus [1]) of 53%, a Protection (Rattus norvegicus [2]) of 66% and a Protection (Rattus norvegicus [3]) of 81%. It also gave a Protection (Rattus norvegicus [4]) of 58%, a Protection (Rattus norvegicus [5]) of 74% and a Protection (Rattus norvegicus [6]) of 62%. The Protection (Rattus norvegicus [7]) was 34%, the Protection (Rattus norvegicus [8]) was 70% and the Protection (Rattus norvegicus [9]) was 90%. For the same compound, the Protection (Rattus norvegicus [10]) was 24%, the Protection (Rattus norvegicus [11]) was 67% and the Protection (Rattus norvegicus [12]) was 68%. For the same compound, the Protection (Rattus norvegicus [13]) was 59%, the Protection (Rattus norvegicus [14]) was 68% and the Protection (Rattus norvegicus [15]) was 54%. The Protection (Rattus norvegicus [16]) was 69%, the Protection (Rattus norvegicus [17]) was 76% and the Protection (Rattus norvegicus [18]) was 40%. The Protection (Rattus norvegicus [19]) was 73%, the Protection (Rattus norvegicus [20]) was 48% and the Protection (Rattus norvegicus [21]) was 58%. For the same compound, the Protection (Rattus norvegicus [22]) was 56%, the Protection (Rattus norvegicus [23]) was 57% and the Protection (Rattus norvegicus [24]) was 57%. For the same compound, the Protection (Rattus norvegicus [25]) was 73%, the Protection (Rattus norvegicus [26]) was 69% and the Protection (Rattus norvegicus [27]) was 59%. For the same compound, the Protection (Rattus norvegicus [28]) was 86%, the Protection (Rattus norvegicus [29]) was 51% and the Protection (Rattus norvegicus [30]) was 65%.
